Patent US20170002055A1, “Novel peptides and combination of peptides for use in immunotherapy against ovarian cancer and other cancers” (immatics biotechnologies GmbH, priority 2015, published 2017)

Experiments:
CD8+ T cells = experiment: In vitro immunogenicity: priming of CD8+ T cells with artificial APCs loaded with peptide/MHC and anti-CD28, multimer readout; type: cell-based, human; settings: HLA-A*02 restricted peptides, percentage of positive wells
Text: In order to obtain information regarding the immunogenicity of the TUMAPs of the present invention, the inventors performed investigations using an in vitro T-cell priming assay based on repeated stimulations of CD8+ T cells with artificial antigen presenting cells (aAPCs) loaded with peptide/MHC complexes and anti-CD28 antibody.
In order to perform in vitro stimulations by artificial antigen presenting cells loaded with peptide-MHC complex (pMHC) and anti-CD28 antibody, the inventors first isolated CD8+ T cells from fresh HLA-A*02 leukapheresis products via positive selection using CD8 microbeads (Miltenyi Biotec, Bergisch-Gladbach, Germany) of healthy donors obtained from the University clinics Mannheim, Germany, after informed consent.
PBMCs and isolated CD8+ lymphocytes were incubated in T-cell medium (TCM) until use consisting of RPMI-Glutamax (Invitrogen, Karlsruhe, Germany) supplemented with 10% heat inactivated human AB serum (PAN-Biotech, Aidenbach, Germany), 100 U/ml Penicillin/100 μg/ml Streptomycin (Cambrex, Cologne, Germany), 1 mM sodium pyruvate (CC Pro, Oberdorla, Germany), 20 μg/ml Gentamycin (Cambrex). 2.5 ng/ml IL-7 (PromoCell, Heidelberg, Germany) and 10 U/ml IL-2 (Novartis Pharma, Nürnberg, Germany) were also added to the TCM at this step.
Generation of pMHC/anti-CD28 coated beads, T-cell stimulations and readout was performed in a highly defined in vitro system using four different pMHC molecules per stimulation condition and 8 different pMHC molecules per readout condition.
The purified co-stimulatory mouse IgG2a anti human CD28 Ab 9.3 (Jung et al., 1987) was chemically biotinylated using Sulfo-N-hydroxysuccinimidobiotin as recommended by the manufacturer (Perbio, Bonn, Germany). Beads used were 5.6 μm diameter streptavidin coated polystyrene particles (Bangs Laboratories, Illinois, USA).
pMHC used for positive and negative control stimulations were A*0201/MLA-001 (peptide […] (SEQ ID NO. 664) from modified Melan-A/MART-1) and A*0201/DDX5-001 ([…] from DDX5, SEQ ID NO. 665), respectively.
800.000 beads/200 μl were coated in 96-well plates in the presence of 4×12.5 ng different biotin-pMHC, washed and 600 ng biotin anti-CD28 were added subsequently in a volume of 200 μl. Stimulations were initiated in 96-well plates by co-incubating […] CD8+ T cells with 2×10^5 washed coated beads in 200 μl TCM supplemented with 5 ng/ml IL-12 (PromoCell) for 3 days at 37° C. Half of the medium was then exchanged by fresh TCM supplemented with 80 U/ml IL-2 and incubating was continued for 4 days at 37° C. This stimulation cycle was performed for a total of three times. For the pMHC multimer readout using 8 different pMHC molecules per condition, a two-dimensional combinatorial coding approach was used as previously described (Andersen et al., 2012) with minor modifications encompassing coupling to 5 different fluorochromes. Finally, multimeric analyses were performed by staining the cells with Live/dead near IR dye (Invitrogen, Karlsruhe, Germany), CD8-FITC antibody clone SK1 (BD, Heidelberg, Germany) and fluorescent pMHC multimers. For analysis, a BD LSRII SORP cytometer equipped with appropriate lasers and filters was used. Peptide specific cells were calculated as percentage of total CD8+ cells. Evaluation of multimeric analysis was done using the FlowJo software (Tree Star, Oregon, USA). In vitro priming of specific multimer+ CD8+ lymphocytes was detected by comparing to negative control stimulations.

HLA-A*02:01 = HLA-A*02:01 (Homo sapiens, UniProt P04439, D140Y/D185E/D98H/E176V/E277Q/G131W/G231S/I119V/I121R/I166T/I218V/L300P/L318F/N151K/N90K/P208A/P217A/Q86G/Q94H/R138H/R169H/T345S); experiment: MHC binding assay (UV-ligand exchange, β2m ELISA, peptide exchange yield); settings: MHC class I binding score; binding to HLA-A*02:01 ranged by peptide exchange yield (UV-ligand exchange, β2m ELISA)
Method in brief: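 Peptide–HLA-A*02:01 complexes were formed by UV-mediated exchange of a UV-cleavable ligand for the test peptide. Exchange yield was measured by capturing complexes on streptavidin, detecting with HRP anti-β2m antibody (1 h, 37°C) and reading TMB absorbance at 450 nm.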

Row | Substance | Wells positive [%] (CD8+ T cells) | Peptide exchange (HLA-A*02:01)
1 | 395 (ALALGGIAVV; listed as Homo sapiens) [compound 395] | “+++” (50%-69% = +++) | “++++” (≧75% = ++++)
2 | 443 (GLWEIENNPTV; listed as Homo sapiens) [compound 443] | “+” (<20% = +) | “+++” (≧50 = +++)
3 | 446 (QLIPALAKV; listed as Homo sapiens) [compound 446] | “++” (20%-49% = ++) | “+++” (≧50 = +++)
4 | 454 (KLPPPPPQA; listed as Homo sapiens) [compound 454] | “++” (20%-49% = ++) | “+++” (≧50 = +++)
5 | 460 (AMLEKNYKL; listed as Homo sapiens) [compound 460] | “+” (<20% = +) | “++++” (≧75% = ++++)
6 | 463 (SLVESHLSDQLTL; listed as Homo sapiens) [compound 463] | “++” (20%-49% = ++) | “+++” (≧50 = +++)
7 | 489 (KMWEELPEVV; listed as Homo sapiens) [compound 489] | “+” (<20% = +) | “+++” (≧50 = +++)
8 | 499 (KIFDIDEAEEGV; listed as Homo sapiens) [compound 499] | “+” (<20% = +) | “++” (≧20% = ++)
9 | 511 (FLDPYCSASV; listed as Homo sapiens) [compound 511] | “+” (<20% = +) | “++” (≧20% = ++)
10 | 518 (KLNAEVACV; listed as Homo sapiens) [compound 518] | “++” (20%-49% = ++) | “+++” (≧50 = +++)
11 | 603 (FLIEPEHVNTV; listed as Homo sapiens) [compound 603] | “+” (<20% = +) | “++” (≧20% = ++)
